According to article PMC7914117, “Ginkgolic acid and anacardic acid are specific covalent inhibitors of SARS-CoV-2 cysteine proteases” (Cell & Bioscience, 2021):

Columns and labels:
[1] = target: SARS-CoV-2 PL^pro (Severe acute respiratory syndrome coronavirus 2, UniProt P0DTD1); assay: SARS-CoV-2 PLpro fluorescence-based enzymatic inhibition assay (Z-RLRGG-AMC substrate); type: biochemical; details: for IC50: mean ± SD, triplicate, read-out: IC50 against PL^pro enzymatic activity; for inhibition at 20 µM: read-out: inhibition against PL^pro in high-throughput screen
[2] = target: SARS-CoV-2 3CL^pro (Severe acute respiratory syndrome coronavirus 2, UniProt P0DTD1); assay: SARS-CoV-2 3CLpro FRET enzymatic inhibition assay; type: biochemical; details: for IC50: 250 nM 3CLpro, 4 mM DTT, 30 min pre-incubation, 50 µM substrate, mean ± SD, triplicate, read-out: IC50 against 3CL^pro enzymatic activity; for IC50 shift upon addition of reducing reagent: 3CLpro assay in absence or presence of 4 mM DTT; for sensitivity of 3CLpro compared to PLpro: ratio of IC50 values, PLpro vs 3CLpro
Experimental: The SARS-CoV-2 3CL^pro was prokaryotic expressed and purified as previously described with slight modification. For enzymatic inhibition assay, the recombinant 3CL^pro (250 nM at a final concentration) was incubated with increasing concentrations of each compound in 90 µL reaction buffer (50 mM Tris–HCl, pH 7.3, 1 mM EDTA, 4mM DTT) for 30 min [6]. The reaction was initiated by adding 10 µL FRET-based peptidic substrate (Dabcyl-KTSAVLQ/SGFRKME-Edans) with a final concentration of 50 µM. The fluorescence signal was immediately measured every 20 s for 30 min using a Bio-Tek Synergy4 plate reader with filters for excitation at 336/20 nm and emission at 490/20 nm. The V0 of reactions were calculated to indicate the enzymatic activities. Three independent experiments were performed and IC50 curves were analyzed using four-parameter logistic regression in GraphPad Prism software.
For mechanism of action study, various concentrations of ginkgolic acid were mixed and incubated with increasing concentrations of 3CL^pro (100–1000 nM) in 90 µL reaction buffer for 30 min. Reactions were initiated by adding 10 µL substrate with a final concentration of 50 µM. At each concentration of ginkgolic acid, the V0s were plotted with the concentrations of 3CL^pro, and the data was fitted using linear regression analysis in GraphPad Prism software.

[3] = Cell-Titer Glo cytotoxicity assay; type: cell-based; details: African green monkey, Vero-E6 cells; for CC50 at 48 h: mean ± SD, triplicate; for viability at 48 h, 20 µM: at 20 µM
Experimental: (§1) To estimate the cytotoxicity of test compounds on VERO-E6 cells, Cell-Titer Glo® luminescent cell viability assay (Promega) was performed according to the manufacturer’s instruction. […] The half of the cytotoxic concentration (CC50) values were calculated from the percentages of cells whose viability was inhibited by test compounds at various concentrations.

[4] = test system: Vero-E6 cells; assay: Cell-Titer Glo cytotoxicity assay; type: cell-based; details: 48 h, mean ± SD, triplicate
Experimental: as §1

[5] = 100 nM PLpro, 4 mM DTT, 30 min pre-incubation, 30 µM substrate
[6] = compounds at 20 µM, 100 nM PLpro, 30 min pre-incubation, 4 mM DTT, 30 µM substrate, RFU at 10 min

Compound | IC50 [1, 5] [µM] | type of enzymatic inhibition of PL^pro ([1]; V0 vs enzyme concentration (25–150 nM) at different inhibitor concentrations) | inhibition at 20 µM [1, 6] [%] | IC50 [2] [µM] | IC50 shift upon addition of reducing reagent [2] | type of enzymatic inhibition of 3CL^pro ([2]; V0 vs enzyme concentration (100–1000 nM) at different inhibitor concentrations) | sensitivity of 3CLpro compared to PLpro [2] | CC50 at 48 h [3] [µM] | viability at 48 h, 20 µM [3] [%] | CC10 [4] [µM] | inhibition against PL^pro in high-throughput screen [1, 6]
CCCCCC/C=C\CCCCCCCc1cccc(O)c1C(=O)O [ginkgolic acid] | 16.3 ± 0.64 | irreversible inhibitor | > 50 | 1.79 ± 0.58 | no significant IC50 shift | irreversible inhibitor | about 10 times | 27.9 ± 0.77 | > 90 | 21.38 ± 0.52 | 
C/C1=C2/[N-][C@H]([C@H](CC(N)=O)[C@@]2(C)CCC(=O)NC[C@@H](C)OP(=O)([O-])O[C@H]2[C@@H](O)[C@@H](n3cnc4cc(C)c(C)cc43)O[C@@H]2CO)[C@]2(C)N=C(/C(C)=C3N=C(/C=C4N=C1[C@@H](CCC(N)=O)C\4(C)C)[C@@H](CCC(N)=O)[C@]\3(C)CC(N)=O)[C@@H](CCC(N)=O)[C@]2(C)CC(N)=O.[CH3-].[Co+3] [methylcobalamin, reference compound] |  |  |  |  |  |  |  |  |  |  | more than 50%
CCCCCCCCCCCCCCCc1cccc(O)c1C(=O)O [anacardic acid] | 17.1 ± 1.3 |  | > 50 | 2.07 ± 0.35 | no significant IC50 shift |  | about 10 times | 25.5 ± 0.69 | > 90 | 22.27 ± 0.26 | 
